Reference: patent US20110245323A1, “RIG-Like Helicase Innate Immunity Inhibits VEGF-Induced Tissue Responses” (Yale University, priority 2006, published 2011)

Columns and labels:
[1] = test system: CC10-rtTA-VEGF165 transgenic mice; test: VEGF-induced angiogenesis, anti-CD31 immunohistochemistry and vessel area density; assay type: in vivo, mouse; details: for Vascularity (%): VEGF-induced tissue responses, TLR agonist administration, PBS control 43
Description: (§1) The CC10-rtTA-VEGF165 transgenic mice used in this study were generated and used as described previously (Lee et al., 2004, Nature Medicine 10:1095-103), which reference is incorporated herein in its entirety. These animals were housed under barrier conditions in the animal facility at Yale University School of Medicine. In these experiments 6-8 week old transgenic (Tg+) animals and their transgene negative littermate controls (Tg−) were randomized to receive water with doxycycline (dox) (0.5 mg/ml) or normal water. Two weeks later they were sacrificed and the VEGF-induced phenotype was evaluated as described below (Lee et al., 2004, Nature Medicine 10:1095-103).
(§2) To define the effects of these agents on the tissue responses induced by VEGF, two experimental procedures were used. In the first, a pretreatment protocol was used. In these experiments the noted innate immunity agonist ([…] unless otherwise indicated) or its vehicle control (PBS) were administered intranasally and aspirated into the lungs of randomized Tg+ and Tg− mice starting one day before the Dox water treatment. The doses were administered to the mice every other day during the 2 week doxyxycline (dox) treatment interval.
(§3) To determine if the innate immunity agonists altered established VEGF-induced tissue responses, a “post treatment” protocol was used in selected experiments. In these experiments the innate immunity agonist was administered 2 days or 14 days after the doxycycline and VEGF-induced responses were evaluated 2 weeks later.
(§4) To define the effects of Poly(I:C) a number of protocols were employed. In most experiments, a pretreatment-2 week protocol was employed. In these experiments, WT and Tg+ mice were treated with Poly(I:C) (30 μg in 50 lambda unless otherwise indicated; Amersham Biosciences, N.J.) or vehicle control via nasal aspiration and transgene activation was accomplished via the administration of dox (0.5 mg/ml) in the animal's drinking water 24 hours later. The Poly(I:C) was administered every other day and the dox was administered continuously for up to 2 weeks.
In selected experiments a pretreatment protocol and shorter treatment interval was employed. In these experiments, WT and Tg+ mice were treated with Poly(I:C) (30 μg/mouse/dose in 50 μl) or vehicle control via nasal aspiration and transgene activation was accomplished with dox 24 hours later. The animals were then randomized to not receive or receive one additional dose of Poly(I:C) 24 hours later and dox was administered continuously during this 2 week interval.
(§5) Lastly, in selected experiments post-transgene activation protocols were employed. In these experiments dox was administered for 2 days or 2 weeks. The Poly(I:C) was then administered via intranasal aspiration every other day for 2 weeks as disclosed elsewhere herein. In selected pre-treatment and post-transgene activation experiments, unmethylated CpG (CpG-B) (Keck Center, Yale University) was also employed at similar doses. At the end of these intervals, assessments of angiogenesis (anti-CD31 immunohistochemistry), vascular permeability (Evan's blue dye extravasation, wet to dry lung weight measurements, BAL protein concentration), BAL and tissue inflammatory cell infiltration and mucus metaplasia (periodic acid-Schiff (PAS) staining, MUC5AC immunoblotting) were undertaken. In all cases experiments were designed to compare Tg− and Tg+ mice on normal water and Tg− and Tg+ mice on dox water.

[2] = test system: CC10-rtTA-VEGF165 transgenic mice; test: BAL inflammatory cell recovery, VEGF-induced inflammation; assay type: in vivo, mouse; details: for Total cells (×10^4): VEGF-induced tissue responses, TLR agonist administration, PBS control 50
Description: as §1, §2, §3, §4, §5
(§6) Mice were sacrificed using intraperitoneal ketamine/xylazine injection and the trachea was cannulated and perfused with two 0.9 nil aliquots of cold saline. The cellular contents and BAL fluid were separated by centrifugation, the BAL cell number was quantitated and cell differential was assessed. The BAL fluid was stored in aliquots at −80° C.

[3] = test system: CC10-rtTA-VEGF165 transgenic mice; test: VEGF-induced pulmonary hemorrhage in BAL fluids; assay type: in vivo, mouse; details: Tg+ mice, pretreatment, vs vehicle
Description: as §1, with “10:1095-103). […]” for “10:1095-103).”
as §6, with “The BAL fluid was stored in aliquots at −80° C.” left out
The lungs were removed en bloc as described elsewhere herein, inflated at 25 cm pressure with PBS containing 0.5% low melting point agarose gel, fixed in Streck solution (Streck Laboratories, La Vista, Nebr.), embedded in paraffin, sectioned and stained. […] Pulmonary hemorrhage was evaluated by quantitating BAL red blood cell number with a Coulter counter (Beckman Coulter).

[4] = test system: CC10-rtTA-VEGF165 transgenic mice; test: VEGF-induced mucus metaplasia (PAS staining, BAL MUC5AC); assay type: in vivo, mouse; details: Tg+ mice, pretreatment, vs vehicle
Description: as §4, §5
The lungs were removed en bloc as described elsewhere herein, inflated at 25 cm pressure with PBS containing 0.5% low melting point agarose gel, fixed in Streck solution (Streck Laboratories, La Vista, Nebr.), embedded in paraffin, sectioned and stained. Hematoxylin and eosin and PAS stains were performed in the Research Histology Laboratory of the Department of Pathology at the Yale University School of Medicine. Pulmonary hemorrhage was evaluated by quantitating BAL red blood cell number with a Coulter counter (Beckman Coulter).
The levels of MUC5AC, the major airway mucin in BAL fluids, were assessed as previously described (Lee et al., 2008, Am J Respir Cell Mol Biol 39:739-746). In these evaluations, 0.1 ml of BAL fluid was slot blotted onto nitrocellulose membranes using a Minifold II slot blot apparatus (Schleicher & Schuell). After air-drying, the membrane was blocked with 5% skim milk, washed three times and incubated overnight at 4° C. with a monoclonal antibody against Mucin-5AC (45M1; NeoMarkers, Union City, Calif.). After washing, the membranes were incubated for 1 hour at room temperature with horseradish peroxidase-conjugated anti-mouse immunoglobulin (Ig)-G (Pierce). Immunoreactive mucins were detected using a chemiluminescent procedure (ECL Plus Western blotting detection system, Amersham Biosciences) according to instructions from the manufacturer.

human patients = details: cited from earlier work

Compound	VEGF-induced angiogenesis (vascular density, appearance, sprouting) ([1]; Tg+ mice, pretreatment starting 1 day before dox, vs vehicle)	Vascularity (%) [1] [%]	total recovery of inflammatory cells during BAL / VEGF-induced inflammation ([2]; Tg+ mice, pretreatment, vs vehicle)	Total cells (×10^4) [2]	VEGF-induced bleeding / hemorrhage in BAL fluids [3]	VEGF-induced mucus metaplasia (PAS stains, BAL MUC5AC accumulation) [4]	toxicity, lower dose (human patients; 10 to 50 mcg/kg)	toxicity and efficacy in human patients, high doses (human patients; 200-300 mcg/kg IV)
CCNCc1nc2c(N)nc3ccccc3c2n1CC(C)(C)O [Gardiquimod]	decreased	32.4	decreased	29 ×10^4	decreased	decreased		
Lipopolysaccharide [LPS]		32.2		156 ×10^4				
poly-ICLC							little or no toxicity	toxic and largely ineffectual
